Patent publication US20260191835A1, “COMBINATIONS COMPRISING A MENIN-MLL INHIBITOR AND AT LEAST ONE OTHER THERAPEUTIC AGENT” (JANSSEN PHARMACEUTICA NV, priority 2022, published 2026)

Tested on: MV4-11 cells
Test: In vitro proliferation (Cell Titer Glo, 6 days) of Compound 51 in combination with gilteritinib, midostaurin or decitabine, MV4-11
Type: cell-based
Design: key to Synergy/antagonism call (maxR test), MV4-11 Cell Proliferation: synergy is indicated by “**”; antagonism is indicated by “*”; no asterisk: absence of any asterisk indicates an additive effect
Experimental: 3) In Vitro Proliferation—Menin-MLL Inhibitor in Combination with FLT3 Inhibitor (Gilteritinib or Midostaurin), DNA Intercalating Agent (Idarubicin) or Hypomethylating Agent (Decitabine)
The effect of Compound 51 in combination with gilteritinib, midostaurin, idarubicin or decitabine was determined in proliferation assays.
AML cell lines MOLM-13, OCI-AML3 and MV4-11 were purchased from DSMZ. MOLM-13 were grown in RPMI medium supplemented with 10% Fetal Bovine Serum (FBS) and 1% penicillin/streptomycin. MV4-11 cells were grown in IMDM medium supplemented with 10% FBS and 1% penicillin/streptomycin. OCI-AML3 cells were cultured in 80-90% alpha-MEM (with or without ribo- and deoxyribonucleosides)+10-20% FBS. All cell lines were cultured at 37° C. in 5% CO2 atmosphere.
AML cell lines (10-20×10^3 cells/well) were seeded in 96-well plates and grown for 6 days in serum (10%)-containing medium in the presence or absence of inhibitors at the indicated concentrations. Proliferation was analyzed by means of a Cell Titer Glo assay using the […] (Promega, Madison, WI, USA), according to the manufacturer's instructions. Data are mean with standard deviation from two to four independent experiments in technical triplicates.
R-based Biochemically Intuitive Generalized Loewe (BIGL) model implemented with a highest single agent (HSA) null model. Specifically, the BIGL methodology was applied to calculate drug-drug interactions (Van der Borght, K., Tourny, A., Bagdziunas, R. et al. BIGL: Biochemically Intuitive Generalized Loewe null model for prediction of the expected combined effect compatible with partial agonism and antagonism. Sci Rep 7, 17935 (2017); Thas, O., Tourny, A., Verbist, B., Hawinkel, S., Nazarov, M., Mutambanengwe, K., & Bijnens, L. Statistical detection of synergy: New methods and a comparative study. Pharmaceutical Statistics (2021)).
Synergy matrix results of the BIGL analysis of the cell line data with HSA as mean model calculated on the basis of the cellular metabolic activity using Cell Titer-Glo assay. Bootstrap confidence intervals are indicated. Effect sizes and their confidence intervals are shown. […] No significant average effect if zero is included in the interval.

[1] = Compound 51 0.01 μm + Decitabine 0.0015 μM
[2] = Compound 51 0.01 μm + Decitabine 0.035 μM
[3] = Compound 51 0.01 μm + Decitabine 0.15 μM
[4] = Compound 51 0.01 μm + Gilteritinib 0.0005 μM
[5] = Compound 51 0.05 μm + Decitabine 0.15 μM
[6] = Compound 51 0.05 μm + Decitabine 1.5 μM
[7] = Compound 51 0.05 μm + Gilteritinib 0.0005 μM

CC(=O)N1CCC(CN2CC[C@@H](Cc3cn(-c4ccc(F)cc4C(=O)N(C)C(C)C)c4cncc(C)c34)C2)CC1 [Compound 51]
Effect size (BIGL, HSA null model), MV4-11 Cell Proliferation (Compound 51 0.0001 μm + Midostaurin 0.0012 μM): −0.03
Effect size (BIGL, HSA null model), MV4-11 Cell Proliferation (Compound 51 0.0001 μm + Midostaurin 0.006 μM): 0.13
Effect size (BIGL, HSA null model), MV4-11 Cell Proliferation (Compound 51 0.0001 μm + Midostaurin 0.025 μM): 0.02
Effect size (BIGL, HSA null model), MV4-11 Cell Proliferation (Compound 51 0.0001 μm + Midostaurin 0.05 μM): −0.05
Effect size (BIGL, HSA null model), MV4-11 Cell Proliferation (Compound 51 0.0001 μm + Midostaurin 0.1 μM): −0.02
Effect size (BIGL, HSA null model), MV4-11 Cell Proliferation (Compound 51 0.0001 μm + Midostaurin 0.5 μM): 0.03
Effect size (BIGL, HSA null model), MV4-11 Cell Proliferation (Compound 51 0.001 μm + Decitabine 0.0015 μM): −0.01
Effect size (BIGL, HSA null model), MV4-11 Cell Proliferation (Compound 51 0.001 μm + Decitabine 0.035 μM): −0.03
Effect size (BIGL, HSA null model), MV4-11 Cell Proliferation (Compound 51 0.001 μm + Decitabine 0.15 μM): 0
Effect size (BIGL, HSA null model), MV4-11 Cell Proliferation (Compound 51 0.001 μm + Decitabine 1.5 μM): −0.05
Effect size (BIGL, HSA null model), MV4-11 Cell Proliferation (Compound 51 0.001 μm + Decitabine 3 μM): −0.04
Effect size (BIGL, HSA null model), MV4-11 Cell Proliferation (Compound 51 0.001 μm + Gilteritinib 0.0005 μM): −0.03
Effect size (BIGL, HSA null model), MV4-11 Cell Proliferation (Compound 51 0.001 μm + Gilteritinib 0.005 μM): −0.01
Effect size (BIGL, HSA null model), MV4-11 Cell Proliferation (Compound 51 0.001 μm + Gilteritinib 0.01 μM): −0.03
Effect size (BIGL, HSA null model), MV4-11 Cell Proliferation (Compound 51 0.001 μm + Gilteritinib 0.05 μM): −0.01
Effect size (BIGL, HSA null model), MV4-11 Cell Proliferation (Compound 51 0.001 μm + Gilteritinib 0.3 μM): −0.01
Effect size (BIGL, HSA null model), MV4-11 Cell Proliferation (Compound 51 0.001 μm + Gilteritinib 1 μM): −0.01
Effect size (BIGL, HSA null model), MV4-11 Cell Proliferation (Compound 51 0.001 μm + Midostaurin 0.0012 μM): −0.02
Effect size (BIGL, HSA null model), MV4-11 Cell Proliferation (Compound 51 0.001 μm + Midostaurin 0.006 μM): −0.01
Effect size (BIGL, HSA null model), MV4-11 Cell Proliferation (Compound 51 0.001 μm + Midostaurin 0.025 μM): 0.05
Effect size (BIGL, HSA null model), MV4-11 Cell Proliferation (Compound 51 0.001 μm + Midostaurin 0.05 μM): 0.07
Effect size (BIGL, HSA null model), MV4-11 Cell Proliferation (Compound 51 0.001 μm + Midostaurin 0.1 μM): −0.03
Effect size (BIGL, HSA null model), MV4-11 Cell Proliferation (Compound 51 0.001 μm + Midostaurin 0.5 μM): 0.03
Effect size (BIGL, HSA null model), MV4-11 Cell Proliferation [1]: −0.1
Synergy/antagonism call (maxR test), MV4-11 Cell Proliferation [1]: **
Effect size (BIGL, HSA null model), MV4-11 Cell Proliferation [2]: −0.11
Synergy/antagonism call (maxR test), MV4-11 Cell Proliferation [2]: **
Effect size (BIGL, HSA null model), MV4-11 Cell Proliferation [3]: −0.23
Synergy/antagonism call (maxR test), MV4-11 Cell Proliferation [3]: **
Effect size (BIGL, HSA null model), MV4-11 Cell Proliferation (Compound 51 0.01 μm + Decitabine 1.5 μM): 0.01
Effect size (BIGL, HSA null model), MV4-11 Cell Proliferation (Compound 51 0.01 μm + Decitabine 3 μM): −0.05
Effect size (BIGL, HSA null model), MV4-11 Cell Proliferation [4]: −0.36
Synergy/antagonism call (maxR test), MV4-11 Cell Proliferation [4]: **
Effect size (BIGL, HSA null model), MV4-11 Cell Proliferation (Compound 51 0.01 μm + Gilteritinib 0.005 μM): −0.02
Effect size (BIGL, HSA null model), MV4-11 Cell Proliferation (Compound 51 0.01 μm + Gilteritinib 0.01 μM): −0.02
Effect size (BIGL, HSA null model), MV4-11 Cell Proliferation (Compound 51 0.01 μm + Gilteritinib 0.05 μM): −0.02
Effect size (BIGL, HSA null model), MV4-11 Cell Proliferation (Compound 51 0.01 μm + Gilteritinib 0.3 μM): −0.02
Effect size (BIGL, HSA null model), MV4-11 Cell Proliferation (Compound 51 0.01 μm + Gilteritinib 1 μM): −0.02
Effect size (BIGL, HSA null model), MV4-11 Cell Proliferation (Compound 51 0.01 μm + Midostaurin 0.0012 μM): −0.06
Effect size (BIGL, HSA null model), MV4-11 Cell Proliferation (Compound 51 0.01 μm + Midostaurin 0.006 μM): −0.13
Effect size (BIGL, HSA null model), MV4-11 Cell Proliferation (Compound 51 0.01 μm + Midostaurin 0.025 μM): −0.14
Effect size (BIGL, HSA null model), MV4-11 Cell Proliferation (Compound 51 0.01 μm + Midostaurin 0.05 μM): −0.11
Effect size (BIGL, HSA null model), MV4-11 Cell Proliferation (Compound 51 0.01 μm + Midostaurin 0.1 μM): −0.04
Effect size (BIGL, HSA null model), MV4-11 Cell Proliferation (Compound 51 0.01 μm + Midostaurin 0.5 μM): 0.03
Effect size (BIGL, HSA null model), MV4-11 Cell Proliferation (Compound 51 0.05 μm + Decitabine 0.0015 μM): 0.02
Effect size (BIGL, HSA null model), MV4-11 Cell Proliferation (Compound 51 0.05 μm + Decitabine 0.035 μM): −0.07
Effect size (BIGL, HSA null model), MV4-11 Cell Proliferation [5]: −0.23
Synergy/antagonism call (maxR test), MV4-11 Cell Proliferation [5]: **
Effect size (BIGL, HSA null model), MV4-11 Cell Proliferation [6]: −0.11
Synergy/antagonism call (maxR test), MV4-11 Cell Proliferation [6]: **
Effect size (BIGL, HSA null model), MV4-11 Cell Proliferation (Compound 51 0.05 μm + Decitabine 3 μM): −0.06
Effect size (BIGL, HSA null model), MV4-11 Cell Proliferation [7]: −0.18
Synergy/antagonism call (maxR test), MV4-11 Cell Proliferation [7]: **
Effect size (BIGL, HSA null model), MV4-11 Cell Proliferation (Compound 51 0.05 μm + Gilteritinib 0.005 μM): −0.03
Effect size (BIGL, HSA null model), MV4-11 Cell Proliferation (Compound 51 0.05 μm + Gilteritinib 0.01 μM): −0.02
Effect size (BIGL, HSA null model), MV4-11 Cell Proliferation (Compound 51 0.05 μm + Gilteritinib 0.05 μM): −0.02
